{"source": "ChEMBL document CHEMBL4715778", "about": "“Sobetirome prodrug esters with enhanced blood-brain barrier permeability” (Bioorg Med Chem, 2016)", "type_in_all_cases": "ADME, organism-based", "key": {"[1]": {"assay": "Prodrug conversion in C57Bl/6 mouse brain assessed as increase in sobetirome level at 1.5 micromol/kg, ip after 30 mins by LC-MS/MS analysis relative to sobetirome control", "conditions": "in vivo, 0.5 h, dose 1.5 µmol/kg"}, "[2]": {"assay": "Ratio of AUC in brain to liver in C57Bl/6 mouse assessed as sobetirome level at 1.5 microM/Kg, ip upto 8 hrs by LC-MS/MS analysis", "conditions": "in vivo"}, "[3]": {"assay": "Ratio of AUC in brain to serum in C57Bl/6 mouse assessed as sobetirome level at 1.5 microM/Kg, ip upto 8 hrs by LC-MS/MS analysis"}, "[4]": {"assay": "Ratio of AUC (0 to t) in brain to serum in C57Bl/6 mouse assessed as sobetirome level at 1.5 microM/Kg, ip upto 8 hrs by LC-MS/MS analysis"}, "[5]": {"assay": "AUC (0 to t) in C57Bl/6 mouse liver assessed as sobetirome level at 1.5 microM/Kg, ip upto 8 hrs by LC-MS/MS analysis", "parameters": "route intraperitoneal, dose 1.5 µM/Kg, time <=8", "conditions": "in vivo"}, "[6]": {"assay": "AUC (0 to t) in C57Bl/6 mouse serum assessed as sobetirome level at 1.5 microM/Kg, ip upto 8 hrs by LC-MS/MS analysis", "parameters": "route intraperitoneal, dose 1.5 µM/Kg, time <=8", "conditions": "in vivo"}, "[7]": {"assay": "Ratio of AUC (0 to t) in brain to liver in C57Bl/6 mouse assessed as sobetirome level at 1.5 microM/Kg, ip upto 8 hrs by LC-MS/MS analysis", "conditions": "in vivo"}, "[8]": {"assay": "AUC (0 to t) in C57Bl/6 mouse brain assessed as sobetirome level at 1.5 microM/Kg, ip upto 8 hrs by LC-MS/MS analysis", "parameters": "route intraperitoneal, dose 1.5 µM/Kg, time <=8", "conditions": "in vivo"}, "[9]": {"assay": "AUC (0 to t) in C57Bl/6 mouse serum at 1.5 microM/Kg, ip upto 8 hrs by LC-MS/MS analysis", "parameters": "route intraperitoneal, dose 1.5 µM/Kg, time <=8", "conditions": "in vivo"}, "[10]": {"assay": "Half life in iv dosed mouse", "conditions": "in vivo"}, "[11]": {"assay": "Ratio of AUC in C57Bl/6 mouse brain to liver at 1.5 microM/Kg, ip upto 8 hrs by LC-MS/MS analysis", "conditions": "in vivo"}, "[12]": {"assay": "Ratio of AUC in C57Bl/6 mouse brain to serum at 1.5 microM/Kg, ip upto 8 hrs by LC-MS/MS analysis", "conditions": "read-out: Ratio AUC"}, "[13]": {"assay": "AUC (0 to t) in C57Bl/6 mouse brain at 1.5 microM/Kg, ip upto 8 hrs by LC-MS/MS analysis", "parameters": "route intraperitoneal, dose 1.5 µM/Kg, time <=8", "conditions": "in vivo"}, "[14]": {"assay": "AUC (0 to t) in C57Bl/6 mouse liver at 1.5 microM/Kg, ip upto 8 hrs by LC-MS/MS analysis", "parameters": "route intraperitoneal, dose 1.5 µM/Kg, time <=8", "conditions": "in vivo"}}, "data": [{"smiles": "Cc1cc(OCC(=O)OCCN2CCOCC2)cc(C)c1Cc1ccc(O)c(C(C)C)c1", "values": [{"measurement": "Drug metabolism", "setting": "[1]", "result": "Metabolite_Notdetected"}]}, {"smiles": "Cc1cc(OCC(=O)OCCN)cc(C)c1Cc1ccc(O)c(C(C)C)c1.Cl", "values": [{"measurement": "fold change (FC)", "setting": "[2]", "result": 4}, {"measurement": "fold change (FC)", "setting": "[3]", "result": 7}, {"measurement": "Ratio AUC", "setting": "[4]", "result": 0.05}, {"measurement": "AUC", "setting": "[5]", "result": 1897, "unit": "ng·h/g"}, {"measurement": "fold change (FC)", "setting": "[1]", "result": 2}, {"measurement": "AUC", "setting": "[6]", "result": 367.8, "unit": "ng·h/g"}, {"measurement": "Ratio AUC", "setting": "[7]", "result": 0.009}, {"measurement": "AUC", "setting": "[8]", "result": 17.1, "unit": "ng·h/g"}]}, {"smiles": "Cc1cc(OCC(=O)OCCN(C)C)cc(C)c1Cc1ccc(O)c(C(C)C)c1", "values": [{"measurement": "Drug metabolism", "setting": "[1]", "result": "Metabolite_Notdetected"}]}, {"smiles": "Cc1cc(OCC(=O)OC2CCNCC2)cc(C)c1Cc1ccc(O)c(C(C)C)c1", "values": [{"measurement": "Drug metabolism", "setting": "[1]", "result": "Metabolite_Notdetected"}]}, {"smiles": "Cc1cc(OCC(=O)OC2CCCNC2)cc(C)c1Cc1ccc(O)c(C(C)C)c1", "note": "(stereo not given)", "values": [{"measurement": "Drug metabolism", "setting": "[1]", "result": "Metabolite_Notdetected"}]}, {"smiles": "Cc1cc(OCC(=O)Oc2ccc(C[C@H](N)C(=O)O)cc2)cc(C)c1Cc1ccc(O)c(C(C)C)c1.Cl", "values": [{"measurement": "Drug metabolism", "setting": "[1]", "result": "Metabolite_Notdetected"}]}, {"smiles": "Cc1cc(OCC(=O)OC[C@H]2CCCN2)cc(C)c1Cc1ccc(O)c(C(C)C)c1", "values": [{"measurement": "Drug metabolism", "setting": "[1]", "result": "Metabolite_Notdetected"}]}, {"smiles": "Cc1cc(OCC(=O)OC[C@H]2O[C@@H](O)[C@H](O)[C@@H](O)[C@@H]2O)cc(C)c1Cc1ccc(O)c(C(C)C)c1", "values": [{"measurement": "Drug metabolism", "setting": "[1]", "result": "Metabolite_Notdetected"}]}, {"smiles": "Cc1cc(OCC(=O)OC2CNC2)cc(C)c1Cc1ccc(O)c(C(C)C)c1", "values": [{"measurement": "Drug metabolism", "setting": "[1]", "result": "Metabolite_Notdetected"}]}, {"smiles": "Cc1cc(OCC(=O)OCCNC(=O)[C@@H](N)CCCCN)cc(C)c1Cc1ccc(O)c(C(C)C)c1.Cl.Cl", "values": [{"measurement": "Drug metabolism", "setting": "[1]", "result": "Metabolite_Notdetected"}]}, {"smiles": "CCOC(=O)COc1cc(C)c(Cc2ccc(O)c(C(C)C)c2)c(C)c1", "values": [{"measurement": "Drug metabolism", "setting": "[1]", "result": "Metabolite_Notdetected"}]}, {"smiles": "Cc1cc(OCC(=O)OCC2CCCCN2)cc(C)c1Cc1ccc(O)c(C(C)C)c1", "note": "(stereo not given)", "values": [{"measurement": "Drug metabolism", "setting": "[1]", "result": "Metabolite_Notdetected"}]}, {"smiles": "Cc1cc(OCC(=O)OCC[N+](C)(C)C)cc(C)c1Cc1ccc(O)c(C(C)C)c1.[Br-]", "values": [{"measurement": "Drug metabolism", "setting": "[1]", "result": "Metabolite_Notdetected"}]}, {"smiles": "Cc1cc(OCC(=O)OC2(C)CNC2)cc(C)c1Cc1ccc(O)c(C(C)C)c1", "values": [{"measurement": "Drug metabolism", "setting": "[1]", "result": "Metabolite_Notdetected"}]}, {"smiles": "Cc1cc(OCC(=O)OCCNC(=O)[C@@H](N)C(C)C)cc(C)c1Cc1ccc(O)c(C(C)C)c1.Cl", "values": [{"measurement": "Drug metabolism", "setting": "[1]", "result": "Metabolite_Notdetected"}]}, {"smiles": "Cc1cc(OCC(=O)OC2CN(C)C2)cc(C)c1Cc1ccc(O)c(C(C)C)c1", "values": [{"measurement": "Drug metabolism", "setting": "[1]", "result": "Metabolite_Notdetected"}]}, {"smiles": "Cc1cc(OCC(=O)O)cc(C)c1Cc1ccc(O)c(C(C)C)c1", "note": "[SOBETIROME]", "values": [{"measurement": "AUC", "setting": "[9]", "result": 681.7, "unit": "ng·h/g"}, {"measurement": "half-life", "setting": "[10]", "result": 78, "unit": "min"}, {"measurement": "Ratio AUC", "setting": "[11]", "result": 0.004}, {"measurement": "Kp at 8 h", "setting": "[12]", "result": 0.02}, {"measurement": "AUC", "setting": "[13]", "result": 10.8, "unit": "ng·h/g"}, {"measurement": "AUC", "setting": "[14]", "result": 2933, "unit": "ng·h/g"}, {"measurement": "Drug metabolism", "setting": "[1]", "result": "Metabolite_Notdetected"}]}]}
